Key:
[1] = test system: RS4; 11 leukaemia tumour line; assay: In vitro cytotoxicity, Microculture Tetrazolium Assay (MTT); assay type: cell-based; details: Homo sapiens, RS4-11, 48 h, 11 cells, 48 hours exposure
Procedure: The cytotoxicity studies were carried out on the RS4; 11 leukaemia tumour line.
The cells are distributed onto microplates and exposed to the test compounds for 48 hours.
The cell viability is then quantified by a colorimetric assay, the Microculture Tetrazolium Assay (Cancer Res., 1987, 47, 939-942).

Bcl-2 protein = Bcl-2 protein (histag-Bcl-2, UniProtKB P10415) (Homo sapiens, UniProt P10415); assay: Inhibition of Bcl-2 by the fluorescence polarisation technique; assay type: binding; details: for IC50: fluorescence polarisation, 2 hours incubation, read-out: IC50 (μM) Bcl-2 FP
Procedure: The fluorescence polarisation tests were carried out on microplates (384 wells). The Bcl-2 protein, labelled (histag-Bcl-2 such that Bcl-2 corresponds to the UniProtKB® primary accession number: P10415), at a final concentration of 5×10^−9M, is mixed with a fluorescent peptide (Fluorescein-REIGAQLRRMADDLNAQY), at a final concentration of 1.00×10^−9M in a buffer solution (Hepes 10 mM, NaCl 150 mM, Tween20 0.05%, pH 7.4), in the presence or absence of increasing concentrations of test compounds. After incubation for 2 hours, the fluorescence polarisation is measured.

Sequence of Bcl-2 protein (P10415 whole entry): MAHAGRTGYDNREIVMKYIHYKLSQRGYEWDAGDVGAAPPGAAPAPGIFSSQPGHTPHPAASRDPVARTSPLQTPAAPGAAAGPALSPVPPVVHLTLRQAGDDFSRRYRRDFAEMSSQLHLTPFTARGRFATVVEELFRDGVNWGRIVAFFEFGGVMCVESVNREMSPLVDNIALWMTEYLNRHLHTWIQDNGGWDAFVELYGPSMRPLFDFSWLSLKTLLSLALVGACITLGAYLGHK

| SMILES | IC50 (Bcl-2 protein) [µM] | Bcl-2 FP, % at given concentration (Bcl-2 protein; @1.1 μM) [% @1.1 μM] | Bcl-2 FP, % at given concentration (Bcl-2 protein; @10 μM) [% @10 μM] | IC50 [1] [nM] |
| --- | --- | --- | --- | --- |
| Cc1c2cc(n1C)-c1cc(Cl)ccc1C(=O)N1Cc3ccccc3C(CCOc3c(cnn3C)N(c3ccc(O)cc3)C2=O)C1 (stereo not drawn) [Example 22, 11-Chloro-4-(4-hydroxyphenyl)-1,7,8-trimethyl-1,4,16,21,22,23-hexahydro-14H-15,21-methano-6,9-(metheno)dibenzo[j,o]pyrazolo[3,4-b][1,4,8,13]oxatriaza-cyclononadecine-5,14(8H)-dione] | 0.0153 | – | – | 11.8 |
| Cc1c2cc(n1C)-c1cc(Cl)ccc1C(=O)N1CCc3c(cccc3OCCc3c(cnn3C3CCOC3)N(c3ccc(O)cc3)C2=O)C1 (stereo not drawn) [Example 23, 11-Chloro-4-(4-hydroxyphenyl)-7,8-dimethyl-1-(tetrahydrofuran-3-yl)-1,4,16,17,23,24-hexahydro-14H-15,18-methano-6,9-(metheno)dibenzo[l,r]pyrazolo[3,4-d][1,6,10,15]oxatriazacyclononadecine-5,14(8H)-dione] | 0.0143 | – | – | 73.3 |
| Cc1c2cc(n1C)-c1cc(Cl)ccc1C(=O)N1Cc3cccc(c3C1)OCCc1c(cnn1C)N(c1ccc(O)cc1)C2=O [Example 24, 11-Chloro-4-(4-hydroxyphenyl)-1,7,8-trimethyl-1,4,22,23-tetrahydro-14H,16H-15,17-methano-6,9-(metheno)dibenzo[b,g]pyrazolo[4,3-o][1,5,10,14]oxatriaza-cyclooctadecine-5,14(8H)-dione] | 0.0149 | – | – | 106 |
| Cc1c(N2C(=O)c3cc(n(C)c3C)-c3cc(Cl)ccc3C(=O)N3CCC(CCOc4cc(O)ccc42)CC3)cc(C#N)n1C [Example 27, 4-[15-Chloro-3-hydroxy-18,19-dimethyl-12,21-dioxo-7,8,9,10,18,21-hexahydro-6H,12H,22H-8,11-ethano-20,17-(metheno)dibenzo[b,j][1,4,8,13]oxatriaza-cyclooctadecin-22-yl]-1,5-dimethyl-1H-pyrrole-2-carbonitrile] | 0.0098 | – | – | 104 |
| Cc1c(N2C(=O)c3cc(n(C)c3C)-c3ccccc3C(=O)N3CCC(CCOc4cc(O)ccc42)CC3)cc(C#N)n1C [Example 28, 4-[3-Hydroxy-18,19-dimethyl-12,21-dioxo-7,8,9,10,18,21-hexahydro-6H,12H,22H-8,11-ethano-20,17-(metheno)dibenzo[b,j][1,4,8,13]oxatriazacycloocta-decin-22-yl]-1,5-dimethyl-1H-pyrrole-2-carbonitrile] | 0.0288 | – | – | 401 |
| Cc1c2cc(n1C)-c1cc(Cl)ccc1C(=O)N1CCc3c(cccc3OCCC[n+]3cccc(c3)N(c3ccc(O)cc3)C2=O)C1 [Example 30, 6-Chloro-14-(4-hydroxyphenyl)-10,11-dimethyl-2,13-dioxo-23-oxa-1,10,14-triaza-19-azoniahexacyclo[26.3.1.1˜9,12˜.1˜15,19˜.0˜3,8˜.0˜24,29˜]tetratriaconta-3,5,7,9(34),11,15(33),16,18,24,26,28-undecaene trifluoromethanesulphonate] | 0.0314 | – | – | > 1880 |
| Cc1c2cc(n1C)-c1cc(Cl)ccc1C(=O)N1CCc3c(cccc3OCCn3c(C)ncc(c3=O)N(c3ccc(O)cc3)C2=O)C1 [Example 31, 6-Chloro-14-(4-hydroxyphenyl)-10,11,18-trimethyl-22-oxa-1,10,14,17,19-pentaazahexacyclo[25.3.1.1˜9,12˜.1˜15,19˜.0˜3,8˜.0˜23,28˜]tritriaconta-3,5,7,9(33),11,15,17,23,25,27-decaene-2,13,32-trione] | – | 74.55 | – | 1330 |

Second part, led by results:

| IC50 (Bcl-2 protein) [µM] | Bcl-2 FP, % at given concentration (Bcl-2 protein; @1.1 μM) [% @1.1 μM] | Bcl-2 FP, % at given concentration (Bcl-2 protein; @10 μM) [% @10 μM] | SMILES | IC50 [1] [nM] |
| --- | --- | --- | --- | --- |
| 0.0693 | – | – | Cc1c2cc(n1C)-c1cc(Cl)ccc1C(=O)N1CCc3c(cccc3OCCOCCN(c3ccc(O)cc3)C2=O)C1 [Example 34, 18-chloro-11-(4-hydroxyphenyl)-14,15-dimethyl-6,7,10,11,23,24-hexahydro-9H,21H-1,22-methano-13,16-(metheno)dibenzo[m,s][1,4,7,11,16]dioxatriaza-cycloicosine-12,21(15H)-dione] | 1240 |
| – | – | 41.5 | Cc1c2cc(n1C)-c1cc(Cl)ccc1C(=O)N1Cc3cccc(c3C1)OCCOCCOc1ncc(cn1)N(c1ccc(O)cc1)C2=O [Example 36, 10-Chloro-2-(4-hydroxyphenyl)-5,6-dimethyl-23,26,29-trioxa-2,6,15,31,34-pentaazahexacyclo[28.2.2.1˜4,7˜.1˜15,18˜.0˜8,13˜.0˜17,22˜]hexatriaconta-1(32),4,7(36),8,10,12,17,19,21,30,33-undecaene-3,14-dione] | > 600 |
| 0.0102 | – | – | Cc1c2cc(n1C)-c1cc(F)ccc1C(=O)N1CCc3c(cccc3OCCOCCOc3ncc(cn3)N(c3ccc(O)cc3)C2=O)C1 [Example 37, 10-Fluoro-2-(4-hydroxyphenyl)-5,6-dimethyl-24,27,30-trioxa-2,6,15,32,35-pentaazahexacyclo[29.2.2.1˜4,7˜.1˜15,19˜.0˜8,13˜.0˜18,23˜]heptatriaconta-1(33),4,7(37),8,10,12,18,20,22,31,34-undecuene-3,14-dione] | 49.6 |
| 0.00385 | – | – | Cc1c2cc(n1C)-c1cc(Cl)ccc1C(=O)N1CCc3c(cccc3OCCOCCOc3ncc(cn3)N(c3ccc(O)cc3)C2=O)C1 [Example 38, 10-Chloro-2-(4-hydroxyphenyl)-5,6-dimethyl-24,27,30-trioxa-2,6,15,32,35-pentaazahexacyclo[29.2.2.1˜4,7˜.1˜15,19˜.0˜8,13˜.0˜18,23˜]heptatriaconta-1(33),4,7(37), 8,10,12,18,20,22,31,34-undecuene-3,14-dione] | 23.1 |
| 0.0768 | – | – | Cc1c2cc(n1C)-c1cc(Cl)ccc1C(=O)N1CCc3c(cccc3OCCCCCCOc3ncc(cn3)N(c3ccc(O)cc3)C2=O)C1 [Example 39, 10-Chloro-2-(4-hydroxyphenyl)-5,6-dimethyl-24,31-dioxa-2,6,15,33,36-pentaazahexacyclo[30.2.2.1˜4,7˜.1˜15,19˜.0˜8,13˜.0˜18,23˜]octatriaconta-1(34),4,7(38),8,10,12,18,20,22,32,35-undecuene-3,14-dione] | 149 |
| 0.0064 | – | – | Cc1c2cc(n1C)-c1cc(Cl)ccc1C(=O)N1CCc3c(cccc3OCCCCCOc3ncc(cn3)N(c3ccc(O)cc3)C2=O)C1 [Example 40, 10-Chloro-2-(4-hydroxyphenyl)-5,6-dimethyl-24,30-dioxa-2,6,15,32,35-pentaazahexacyclo[29.2.2.1˜4,7˜.1˜15,19˜.0˜8,13˜.0˜8,23˜]heptatriaconta-1(33),4,7(37),8,10,12,18,20,22,31,34-undecuene-3,14-dione] | 29.9 |
| 0.0467 | – | – | Cc1c2cc(n1C)-c1cc(Cl)ccc1C(=O)N1CCc3c(cccc3OCCCCOc3ncc(cn3)N(c3ccc(O)cc3)C2=O)C1 [Example 41, 10-Chloro-2-(4-hydroxyphenyl)-5,6-dimethyl-24,29-dioxa-2,6,15,31,34-pentaazahexacyclo[28.2.2.1˜4,7˜.1˜15,19˜.0˜8,13˜.0˜18,23˜]hexatriaconta-1(32),4,7(36),8,10,12,18,20,22,30,33-undecaene-3,14-dione] | 197 |
| – | – | 39.2 | Cc1c2cc(n1C)-c1cc(Cl)ccc1C(=O)N1CCCC(COCCOCCOc3ncc(cn3)N(c3ccc(O)cc3)C2=O)C1 (stereo not drawn) [Example 42, 10-Chloro-2-(4-hydroxyphenyl)-5,6-dimethyl-21,24,27-trioxa-2,6,15,29,32-pentaazapentacyclo[26.2.2.1˜4,7˜.1˜15,19˜.0˜8,13˜]tetratriaconta-1(30),4, 7(34),8,10,12,28,31-octaene-3,14-dione] | > 600 |

From patent US11833162B2, “Macrocyclic derivatives, process for preparing same and pharmaceutical compositions containing same” (LES LABORATOIRES SERVIER, priority 2017, dated 2023)
